{
  "source": "patent US10392428B2",
  "about": "“GLP-1 derivatives and uses thereof” (Novo Nordisk A/S, priority 2014, dated 2019)",
  "key": {"human GLP-1 receptor": {"biological_target": "T1, human GLP-1 receptor (Homo sapiens, UniProt P43220)", "T1 construct": "expressed in transfected cells; host or cells: membrane preparation from BHK cells, clone FCW467-12A (parent line BHKTS13)", "T1 sequence (P43220 24-463)": "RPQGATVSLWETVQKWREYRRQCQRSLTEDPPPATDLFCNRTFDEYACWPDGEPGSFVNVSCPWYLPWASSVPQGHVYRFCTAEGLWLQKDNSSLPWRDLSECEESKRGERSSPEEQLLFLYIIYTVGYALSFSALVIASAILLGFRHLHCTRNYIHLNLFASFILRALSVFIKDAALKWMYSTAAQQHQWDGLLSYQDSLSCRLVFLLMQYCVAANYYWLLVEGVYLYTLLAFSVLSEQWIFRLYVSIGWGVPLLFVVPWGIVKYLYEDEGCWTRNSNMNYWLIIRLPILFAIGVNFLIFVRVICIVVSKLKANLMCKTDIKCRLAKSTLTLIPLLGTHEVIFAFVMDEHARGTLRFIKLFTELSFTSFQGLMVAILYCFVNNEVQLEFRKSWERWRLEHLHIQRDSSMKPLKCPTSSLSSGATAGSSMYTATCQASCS", "test": "GLP-1 receptor binding: competitive binding assay (125I-GLP-1, SPA) on isolated membranes at low and high HSA", "procedure": "The purpose of this example is to test the receptor binding of the GLP-1 derivatives in vitro. The receptor binding is a measure of affinity of a derivative for the human GLP-1 receptor.\nEach derivative is added in a series of concentrations to isolated membranes containing the human GLP-1 receptor and displacement of the labelled ligand is monitored. The receptor binding is reported as the concentration at which half of the labelled ligand is displaced from the receptor, the IC50 value.\nBuffer 1 consisted of 20 mM Na-HEPES plus 10 mM EDTA and pH was adjusted to 7.4. Buffer 2 consisted of 20 mM Na-HEPES plus 0.1 mM EDTA and pH was adjusted to 7.4. Assay buffer consisted of 50 mM HEPES supplemented with 5 mM EGTA, 5 mM MgCl2, 0.005% Tween 20 and pH was adjusted to 7.4. An 8% albumin stock consisted of HSA dissolved at 8% (w/v) in assay buffer. An 0.02% albumin stock consisted of HSA dissolved at 0.02% (w/v) in assay buffer.\nThe cells express the human GLP-1 receptor.\nThe cells were grown at 5% CO2 in DMEM, 10% fetal calf serum, 1% Pen/Strep (Penicillin/Streptomycin) and 1.0 mg/ml of the selection marker G418.\nTo make a membrane preparation the cells were grown to approximately 80% confluence. The cells were washed twice in phosphate-buffered saline and harvested. The cells were pelleted using a brief centrifugation and the cell pellet was kept on ice. […] The homogenate was centrifuged for 15 minutes. The pellet was re-suspended (homogenised) in 10 ml buffer 2 and centrifuged. This step was repeated once more. The resulting pellet was re-suspended in buffer 2 and the protein concentration was determined. The membranes were aliquoted and stored at minus 80° C.\nFor the receptor binding assay in the presence of low HSA (0.005%) 50 μl of the assay buffer was added to each well of an assay plate.\nFor the receptor binding assay in the presence of high HSA (2%) 50 μl of the 8% albumin stock was added to each well of an assay plate.\nCell membrane aliquots were thawed and diluted to their working concentration. Fifty μl were added to each well in the assay plate.\nWGA SPA beads were suspended in assay buffer at 20 mg/ml. The suspension was diluted to 10 mg/ml in assay buffer just prior to addition to the assay plate. Fifty μl were added to each well in the assay plate.\nA 25 μl aliquot was reserved for measuring total counts/well.\nThe assay plate was incubated for 2 h at 30° C.\nThe assay plate was centrifuged for 10 min.\nThe assay plate was read in a Packard TopCount NXT instrument.\nThe data from the TopCount instrument were transferred to Graph Pad Prism software. Individual replicates were analysed using non-linear regression. IC50 values were calculated by the software and reported in nM. The reported values are averages of all of the measured values for each compound."}, "[1]": {"test": "Pharmacokinetic study in minipigs (i.v.)", "settings": "male, Göttingen, minipig, in vivo, iv", "experimental": "The derivatives of Examples 12, 14, and 15 were dosed 2 nmol/kg. The derivatives of Examples 1 and 2 were dosed 15 nmol/kg."}},
  "note": "Where two headings read alike, the source gives them in different places. Non-standard residues stand in square brackets, D forms with d. Residues, ends and D or L forms follow the SMILES beside them. Groups on a side chain read outwards from the residue. *: point of attachment. X1 = O=C(O)CCCCCCCCCCCCCCCCCCC(=O)NC[C@H]1CC[C@H](C(=O)N[C@@H](CCC(=O)NCCOCCOCC(=O)NCCOCCOCC(=O)NCCCC[C@H](NC(=O)COCCOCCNC(=O)COCCOCCNC(=O)CC[C@H](NC(=O)[C@H]2CC[C@H](CNC(=O)CCCCCCCCCCCCCCCCCCC(=O)O)CC2)C(=O)O)C(=O)*)C(=O)O)CC1; Desaminohistidyl = O=C(CCc1c[nH]cn1)*; AEEA = NCCOCCOCC(=O)O; Aib = CC(C)(N)C(=O)O",
  "data": [
    {"smiles": "CC[C@H](C)[C@H](NC(=O)[C@H](Cc1ccccc1)NC(=O)[C@H](CCC(=O)O)NC(=O)[C@H](CCCNC(=N)N)NC(=O)[C@H](C)NC(=O)[C@H](C)NC(=O)[C@H](CCC(N)=O)NC(=O)[C@H](CCC(=O)O)NC(=O)[C@H](CCC(=O)O)NC(=O)[C@H](CC(C)C)NC(=O)[C@H](Cc1ccc(O)cc1)NC(=O)[C@H](CO)NC(=O)[C@H](CO)NC(=O)[C@@H](NC(=O)[C@H](CC(=O)O)NC(=O)[C@H](CO)NC(=O)[C@@H](NC(=O)[C@H](Cc1ccccc1)NC(=O)[C@@H](NC(=O)CNC(=O)[C@H](CCC(=O)O)NC(=O)C(C)(C)NC(=O)[C@@H](N)Cc1c[nH]cn1)[C@@H](C)O)[C@@H](C)O)C(C)C)C(=O)N[C@@H](C)C(=O)N[C@@H](Cc1c[nH]c2ccccc12)C(=O)N[C@@H](CC(C)C)C(=O)N[C@H](C(=O)N[C@@H](CCCNC(=N)N)C(=O)NCC(=O)N[C@@H](CCCNC(=N)N)C(=O)N[C@@H](CCCCNC(=O)COCCOCCNC(=O)COCCOCCNC(=O)COCCOCCNC(=O)COCCOCCNC(=O)[C@H](CCCCNC(=O)COCCOCCNC(=O)CC[C@H](NC(=O)[C@H]1CC[C@H](CNC(=O)CCCCCCCCCCCCCCCCCCC(=O)O)CC1)C(=O)O)NC(=O)COCCOCCNC(=O)CC[C@H](NC(=O)[C@H]1CC[C@H](CNC(=O)CCCCCCCCCCCCCCCCCCC(=O)O)CC1)C(=O)O)C(=O)O)C(C)C", "note": "[Example 21, N{Epsilon-37}-[2-[2-[2-[[2-[2-[2-[[2-[2-[2-[[2-[2-[2-[[(2S)-2,6-bis[[2-[2-[2-[[(4S)-4-carboxy-4-[[4-[(19-carboxynonadecanoylamino)methyl]cyclohexanecarbonyl]amino]butanoyl]amino]ethoxy]ethoxy]acetyl]amino]hexanoyl]amino]ethoxy]ethoxy]acetyl]amino]ethoxy]ethoxy]acetyl]amino]ethoxy]ethoxy]acetyl]amino]ethoxy]ethoxy]acetyl]-[Aib8,Glu22,Arg26,Arg34,Lys37]-GLP-1-(7-37)-peptide]", "values": [
      {"measurement": "IC50", "setting": "human GLP-1 receptor; High HSA IC50 (nM), high HSA (2.0% final assay concentration)", "value": 19, "unit": "nM"},
      {"measurement": "IC50", "setting": "human GLP-1 receptor; Low HSA IC50 (nM), low HSA (max. 0.001% final assay concentration)", "value": 1.5, "unit": "nM"}
    ]},
    {"smiles": "CCCCCCCCCCCCCC(=O)NCCOCCOCC(=O)NCCCC[C@H](NC(=O)COCCOCCNC(=O)CCCCCCCCCCCCC)C(=O)NCCOCCOCC(=O)NCCCC[C@H](NC(=O)[C@H](CCCNC(=N)N)NC(=O)C(C)(C)NC(=O)[C@H](CCCCN)NC(=O)[C@@H](NC(=O)[C@H](CC(C)C)NC(=O)[C@H](Cc1c[nH]c2ccccc12)NC(=O)[C@H](C)NC(=O)[C@@H](NC(=O)[C@H](Cc1ccccc1)NC(=O)[C@H](CCC(=O)O)NC(=O)[C@H](CCCCN)NC(=O)[C@H](C)NC(=O)[C@H](C)NC(=O)[C@H](CCC(N)=O)NC(=O)C(C)(C)NC(=O)[C@H](CCC(=O)O)NC(=O)[C@H](CC(C)C)NC(=O)[C@H](Cc1ccc(O)cc1)NC(=O)[C@H](CO)NC(=O)[C@H](CO)NC(=O)[C@@H](NC(=O)[C@H](CC(=O)O)NC(=O)[C@H](CO)NC(=O)[C@@H](NC(=O)[C@H](Cc1ccccc1)NC(=O)[C@@H](NC(=O)CNC(=O)[C@H](CCC(=O)O)NC(=O)C(C)(C)NC(=O)[C@@H](N)Cc1c[nH]cn1)[C@@H](C)O)[C@@H](C)O)C(C)C)[C@@H](C)CC)C(C)C)C(N)=O", "note": "[Comparative Example 2, N{Epsilon-37}-[2-[2-[2-[[(2S)-2,6-bis[[2-[2-[2-(tetradecanoylamino)ethoxy]ethoxy]acetyl]amino]hexanoyl]amino]ethoxy]ethoxy]acetyl]-[Aib8,Aib22,Aib35,Lys37]-GLP-1-(7-37)-peptide Amide, reference compound]", "values": [
      {"measurement": "half-life", "setting": "[1]", "value": 3, "unit": "h"}
    ]},
    {"smiles": "CC[C@H](C)[C@H](NC(=O)[C@H](Cc1ccccc1)NC(=O)[C@H](CCC(=O)O)NC(=O)[C@H](CCCNC(=N)N)NC(=O)[C@H](C)NC(=O)[C@H](C)NC(=O)[C@H](CCC(N)=O)NC(=O)[C@H](CCC(=O)O)NC(=O)[C@H](CCC(=O)O)NC(=O)[C@H](CC(C)C)NC(=O)[C@H](Cc1ccc(O)cc1)NC(=O)[C@H](CO)NC(=O)[C@H](CO)NC(=O)[C@@H](NC(=O)[C@H](CC(=O)O)NC(=O)[C@H](CO)NC(=O)[C@@H](NC(=O)[C@H](Cc1ccccc1)NC(=O)[C@@H](NC(=O)CNC(=O)[C@H](CCC(=O)O)NC(=O)C(C)(C)NC(=O)[C@@H](N)Cc1c[nH]cn1)[C@@H](C)O)[C@@H](C)O)C(C)C)C(=O)N[C@@H](C)C(=O)N[C@@H](Cc1c[nH]c2ccccc12)C(=O)N[C@@H](CC(C)C)C(=O)N[C@H](C(=O)N[C@@H](CCCNC(=N)N)C(=O)NCC(=O)N[C@@H](CCCNC(=N)N)C(=O)N[C@@H](CCCCNC(=O)COCCOCCNC(=O)COCCOCCNC(=O)[C@H](CCCCNC(=O)COCCOCCNC(=O)COCCOCCNC(=O)CC[C@H](NC(=O)[C@H]1CC[C@H](CNC(=O)CCCCCCCCCCCCCCCCCCC(=O)O)CC1)C(=O)O)NC(=O)COCCOCCNC(=O)COCCOCCNC(=O)CC[C@H](NC(=O)[C@H]1CC[C@H](CNC(=O)CCCCCCCCCCCCCCCCCCC(=O)O)CC1)C(=O)O)C(=O)O)C(C)C", "note": "[Example 2, N{Epsilon-37}-[2-[2-[2-[[2-[2-[2-[[(2S)-2,6-bis[[2-[2-[2-[[2-[2-[2-[[(4S)-4-carboxy-4-[[4-[(19-carboxynonadecanoylamino)methyl]cyclohexanecarbonyl]amino]butanoyl]amino]ethoxy]ethoxy]acetyl]amino]ethoxy]ethoxy]acetyl]amino]hexanoyl]amino]ethoxy]ethoxy]acetyl]amino]ethoxy]ethoxy]acetyl]-[Aib8,Glu22,Arg26,Arg34,Lys37]-GLP-1-(7-37)-peptide]", "values": [
      {"measurement": "half-life", "setting": "[1]; minipigs, i.v., 15 nmol/kg, harmonic mean, read-out: Terminal half-live (converted)", "value": 130, "unit": "h"}
    ]},
    {"smiles": "CC[C@H](C)[C@H](NC(=O)[C@H](Cc1ccccc1)NC(=O)[C@H](CCC(=O)O)NC(=O)[C@H](CCCNC(=N)N)NC(=O)[C@H](C)NC(=O)[C@H](C)NC(=O)[C@H](CCC(N)=O)NC(=O)[C@H](CCC(=O)O)NC(=O)[C@H](CCC(=O)O)NC(=O)[C@H](CC(C)C)NC(=O)[C@H](Cc1ccc(O)cc1)NC(=O)[C@H](CO)NC(=O)[C@H](CO)NC(=O)[C@@H](NC(=O)[C@H](CC(=O)O)NC(=O)[C@H](CO)NC(=O)[C@@H](NC(=O)[C@H](Cc1ccccc1)NC(=O)[C@@H](NC(=O)CNC(=O)[C@H](CCC(=O)O)NC(=O)C(C)(C)NC(=O)[C@@H](N)Cc1c[nH]cn1)[C@@H](C)O)[C@@H](C)O)C(C)C)C(=O)N[C@@H](C)C(=O)N[C@@H](Cc1c[nH]c2ccccc12)C(=O)N[C@@H](CC(C)C)C(=O)N[C@H](C(=O)N[C@@H](CCCNC(=N)N)C(=O)NCC(=O)N[C@@H](CCCNC(=N)N)C(=O)N[C@@H](CCCCNC(=O)COCCOCCNC(=O)COCCOCCNC(=O)COCCOCCNC(=O)COCCOCCNC(=O)COCCOCCNC(=O)COCCOCCNC(=O)[C@H](CCCCNC(=O)CC[C@H](NC(=O)[C@H]1CC[C@H](CNC(=O)CCCCCCCCCCCCCCCCCCC(=O)O)CC1)C(=O)O)NC(=O)CC[C@H](NC(=O)[C@H]1CC[C@H](CNC(=O)CCCCCCCCCCCCCCCCCCC(=O)O)CC1)C(=O)O)C(=O)O)C(C)C", "note": "[Example 12]", "values": [
      {"measurement": "half-life", "setting": "[1]; minipigs, i.v., 2 nmol/kg, harmonic mean, read-out: Terminal half-live (converted)", "value": 142, "unit": "h"}
    ]},
    {"smiles": "CC[C@H](C)[C@H](NC(=O)[C@H](Cc1ccccc1)NC(=O)[C@H](CCC(=O)O)NC(=O)[C@H](CCCNC(=N)N)NC(=O)[C@H](C)NC(=O)[C@H](C)NC(=O)[C@H](CCC(N)=O)NC(=O)[C@H](CCC(=O)O)NC(=O)[C@H](CCC(=O)O)NC(=O)[C@H](CC(C)C)NC(=O)[C@H](Cc1ccc(O)cc1)NC(=O)[C@H](CO)NC(=O)[C@H](CO)NC(=O)[C@@H](NC(=O)[C@H](CC(=O)O)NC(=O)[C@H](CO)NC(=O)[C@@H](NC(=O)[C@H](Cc1ccccc1)NC(=O)[C@@H](NC(=O)CNC(=O)[C@H](CCC(=O)O)NC(=O)C(C)(C)NC(=O)CCc1cnc[nH]1)[C@@H](C)O)[C@@H](C)O)C(C)C)C(=O)N[C@@H](C)C(=O)N[C@@H](Cc1c[nH]c2ccccc12)C(=O)N[C@@H](CC(C)C)C(=O)N[C@H](C(=O)N[C@@H](CCCNC(=N)N)C(=O)NCC(=O)N[C@@H](CCCNC(=N)N)C(=O)NCC(=O)NCC(=O)N[C@@H](CCCCNC(=O)COCCOCCNC(=O)COCCOCCNC(=O)[C@H](CCCCNC(=O)COCCOCCNC(=O)COCCOCCNC(=O)CC[C@H](NC(=O)[C@H]1CC[C@H](CNC(=O)CCCCCCCCCCCCCCCCCCC(=O)O)CC1)C(=O)O)NC(=O)COCCOCCNC(=O)COCCOCCNC(=O)CC[C@H](NC(=O)[C@H]1CC[C@H](CNC(=O)CCCCCCCCCCCCCCCCCCC(=O)O)CC1)C(=O)O)C(=O)O)C(C)C", "note": "[Example 7, [Imp7,Aib8,Glu22,Arg26,Arg34]-GLP-1-(7-37)-peptidyl-Gly-N{Epsilon}[2-[2-[2-[[2-[2-[2-[[(2S)-2,6-bis[[2-[2-[2-[[2-[2-[2-[[(4S)-4-carboxy-4-[[4-[(19-carboxynonadecanoylamino)methyl]cyclohexanecarbonyl]amino]butanoyl]amino]ethoxy]ethoxy]acetyl]amino]ethoxy]ethoxy]acetyl]amino]hexanoyl]amino]ethoxy]ethoxy]acetyl]amino]ethoxy]ethoxy]acetyl]Lys] (Desaminohistidyl-[Aib]EGTFTSDVSSYLEEQAAREFIAWLVRGRGGK([AEEA-AEEA-X1])-OH; C-terminus assumed)", "values": [
      {"measurement": "half-life", "setting": "[1]; minipigs, i.v., 5 nmol/kg, harmonic mean, read-out: Terminal half-live (converted)", "value": 134, "unit": "h"}
    ]}
  ]
}
